Source: US6355799B1, “Substituted benzene compounds, process for their preparation, and herbicidal and defoliant compositions containing them” (ISK Americas Incorporated, priority 1997, dated 2002)

What was measured:
Type in all cases: in vivo
[1] = system: field corn (Zea mays L., var. Dekalb 535, CORN); assay: Post-emerge test, crop safety; details: rating scale 0-100 (0 no damage, 100 complete death), 14 days after application
Outline: (§1)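 Sandy loam pots; pre-emerge: sown 1 d pre-spray, surface-watered after, then bottom-watered. Post-emerge: sown 8–21 d before, 2–3 leaf stage, + 0.25% v/v NIS, bottom-watered. Acetone, 187 l/ha track spray, 15–1000 g ai/ha. 0–100 injury score, day 14.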

[2] = system: upland rice (Oryza sp., var. Tebonnet, RICE); assay: Post-emerge test, crop safety; details: rating scale 0-100 (0 no damage, 100 complete death), 14 days after application
Outline: as §1

[3] = system: ivyleaf morningglory (Ipomoea hederacea, IPOHE); assay: Pre-emerge test, greenhouse herbicide activity screening; details: rating scale 0-100, 14 days after application
Outline: as §1

[4] = system: large crabgrass (Digitaria sanguinalis, DIGSA); assay: as above; details: rating scale 0-100, 14 days after application
Outline: as §1

[5] = system: green foxtail (Setaria viridis, SETVI); assay: as above; details: rating scale 0-100, 14 days after application
Outline: as §1

[6] = system: velvetleaf (Abutilon theophrasti, ABUTH); assay: as above; details: rating scale 0-100, 14 days after application
Outline: as §1

[7] = system: lambsquarters (Chenopodium album, CHEAL); assay: as above; details: rating scale 0-100, 14 days after application
Outline: as §1

[8] = system: barnyardgrass (Echinochloa crus-galli, ECHCG); assay: as above; details: rating scale 0-100, 14 days after application
Outline: as §1

[9] = system: johnsongrass (Sorghum halepense, SORHA); assay: as above; details: rating scale 0-100, 14 days after application
Outline: as §1

[10] = system: sicklepod (Cassia obtusifolia, CASOB); assay: as above; details: rating scale 0-100, 14 days after application
Outline: as §1

[11] = system: ivyleaf morningglory (Ipomoea hederacea, IPOHE); assay: Post-emerge test, greenhouse herbicide activity screening; details: rating scale 0-100 (0 no damage, 100 complete death), 14 days after application
Outline: (§2)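 Rating: 0–100 visual injury, 14 DAA. Application: acetone, 187 l/ha, 15–1000 g ai/ha, flat-fan track sprayer with nozzle 40–45 cm above soil or canopy. Post-emerge runs used 0.25% v/v surfactant on 2–3 leaf plants.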

[12] = system: large crabgrass (Digitaria sanguinalis, DIGSA); assay: as above; details: rating scale 0-100 (0 no damage, 100 complete death), 14 days after application
Outline: as §2

[13] = system: green foxtail (Setaria viridis, SETVI); assay: as above; details: rating scale 0-100 (0 no damage, 100 complete death), 14 days after application
Outline: as §2

[14] = system: common ragweed (Ambrosia artemisizfolia L., AMBEL); assay: as above; details: rating scale 0-100 (0 no damage, 100 complete death), 14 days after application
Outline: as §2

[15] = system: redroot pigweed (Amaranthus retroflexus, AMARE); assay: as above; details: rating scale 0-100 (0 no damage, 100 complete death), 14 days after application
Outline: as §2

[16] = system: velvetleaf (Abutilon theophrasti, ABUTH); assay: as above; details: rating scale 0-100 (0 no damage, 100 complete death), 14 days after application
Outline: as §2

[17] = system: lambsquarters (Chenopodium album, CHEAL); assay: as above; details: rating scale 0-100 (0 no damage, 100 complete death), 14 days after application
Outline: as §2

[18] = system: barnyardgrass (Echinochloa crus-galli, ECHCG); assay: as above; details: rating scale 0-100 (0 no damage, 100 complete death), 14 days after application
Outline: as §2

[19] = system: johnsongrass (Sorghum halepense, SORHA); assay: as above; details: rating scale 0-100 (0 no damage, 100 complete death), 14 days after application
Outline: as §2

[20] = system: sicklepod (Cassia obtusifolia, CASOB); assay: as above; details: rating scale 0-100 (0 no damage, 100 complete death), 14 days after application
Outline: as §2

[21] = system: field corn (Zea mays L., var. Dekalb 535, CORN); assay: Pre-emerge test, crop safety; details: rating scale 0-100, 14 days after application
Outline: (§3)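 Herbicidal damage is scored 0 (none) to 100 (complete plant death) two weeks after a simulated field spray. Rates span 15–1000 g ai/ha, delivered in acetone at 187 l/ha. For post-emergence treatments, plants have 2–3 leaves and the spray carries 0.25% v/v non-ionic surfactant.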

[22] = system: upland rice (Oryza sp., var. Tebonnet, RICE); assay: Pre-emerge test, crop safety; details: rating scale 0-100, 14 days after application
Outline: as §3

[23] = system: redroot pigweed (Amaranthus retroflexus, AMARE); assay: Pre-emerge test, greenhouse herbicide activity screening; details: rating scale 0-100, 14 days after application
Outline: as §3

## COc1c(Cl)cc(F)c(-n2c(=O)cc(C(F)(F)F)n(C)c2=O)c1CC(C)(Cl)C(=O)OC(C)C (stereo not shown) [14-39]
[1]; Rate 63 g ai/ha
  Post-emerge phytotoxicity rating CORN (crop damage): 30
[1]; Rate 250 g ai/ha
  Post-emerge phytotoxicity rating CORN (crop damage): 50
[2]; Rate 63 g ai/ha
  Post-emerge phytotoxicity rating RICE (crop damage): 90
[2]; Rate 250 g ai/ha
  Post-emerge phytotoxicity rating RICE (crop damage): 100
[3]; 63 g ai/ha
  Pre-emerge herbicidal activity, phytotoxicity rating IPOHE: 0
[3]; 250 g ai/ha
  Pre-emerge herbicidal activity, phytotoxicity rating IPOHE: 0
[4]; 63 g ai/ha
  Pre-emerge herbicidal activity, phytotoxicity rating DIGSA: 95
[4]; 250 g ai/ha
  Pre-emerge herbicidal activity, phytotoxicity rating DIGSA: 100
[5]; 63 g ai/ha
  Pre-emerge herbicidal activity, phytotoxicity rating SETVI: 70
[5]; 250 g ai/ha
  Pre-emerge herbicidal activity, phytotoxicity rating SETVI: 100
[6]; 63 g ai/ha
  Pre-emerge herbicidal activity, phytotoxicity rating ABUTH: 100
[6]; 250 g ai/ha
  Pre-emerge herbicidal activity, phytotoxicity rating ABUTH: 100
[7]; 63 g ai/ha
  Pre-emerge herbicidal activity, phytotoxicity rating CHEAL: 100
[7]; 250 g ai/ha
  Pre-emerge herbicidal activity, phytotoxicity rating CHEAL: 100
[8]; 63 g ai/ha
  Pre-emerge herbicidal activity, phytotoxicity rating ECHCG: 10
[8]; 250 g ai/ha
  Pre-emerge herbicidal activity, phytotoxicity rating ECHCG: 95
[9]; 63 g ai/ha
  Pre-emerge herbicidal activity, phytotoxicity rating SORHA: 0
[9]; 250 g ai/ha
  Pre-emerge herbicidal activity, phytotoxicity rating SORHA: 60
[10]; 63 g ai/ha
  Pre-emerge herbicidal activity, phytotoxicity rating CASOB: 0
[10]; 250 g ai/ha
  Pre-emerge herbicidal activity, phytotoxicity rating CASOB: 20
[11]; Rate 63 g ai/ha
  Post-emerge Herbicidal Activity, phytotoxicity rating IPOHE: 20
[11]; Rate 250 g ai/ha
  Post-emerge Herbicidal Activity, phytotoxicity rating IPOHE: 50
[12]; Rate 63 g ai/ha
  Post-emerge Herbicidal Activity, phytotoxicity rating DIGSA: 60
[12]; Rate 250 g ai/ha
  Post-emerge Herbicidal Activity, phytotoxicity rating DIGSA: 100
[13]; Rate 63 g ai/ha
  Post-emerge Herbicidal Activity, phytotoxicity rating SETVI: 95
[13]; Rate 250 g ai/ha
  Post-emerge Herbicidal Activity, phytotoxicity rating SETVI: 100
[14]; Rate 63 g ai/ha
  Post-emerge Herbicidal Activity, phytotoxicity rating AMBEL: 50
[14]; Rate 250 g ai/ha
  Post-emerge Herbicidal Activity, phytotoxicity rating AMBEL: 50
[15]; Rate 63 g ai/ha
  Post-emerge Herbicidal Activity, phytotoxicity rating AMARE: 100
[15]; Rate 250 g ai/ha
  Post-emerge Herbicidal Activity, phytotoxicity rating AMARE: 100
[16]; Rate 63 g ai/ha
  Post-emerge Herbicidal Activity, phytotoxicity rating ABUTH: 99
[16]; Rate 250 g ai/ha
  Post-emerge Herbicidal Activity, phytotoxicity rating ABUTH: 100
[17]; Rate 63 g ai/ha
  Post-emerge Herbicidal Activity, phytotoxicity rating CHEAL: 100
[17]; Rate 250 g ai/ha
  Post-emerge Herbicidal Activity, phytotoxicity rating CHEAL: 100
[18]; Rate 63 g ai/ha
  Post-emerge Herbicidal Activity, phytotoxicity rating ECHCG: 100
[18]; Rate 250 g ai/ha
  Post-emerge Herbicidal Activity, phytotoxicity rating ECHCG: 100
[19]; Rate 63 g ai/ha
  Post-emerge Herbicidal Activity, phytotoxicity rating SORHA: 30
[19]; Rate 250 g ai/ha
  Post-emerge Herbicidal Activity, phytotoxicity rating SORHA: 40
[20]; Rate 63 g ai/ha
  Post-emerge Herbicidal Activity, phytotoxicity rating CASOB: 60
[20]; Rate 250 g ai/ha
  Post-emerge Herbicidal Activity, phytotoxicity rating CASOB: 100
[21]; 63 g ai/ha
  Pre-emerge phytotoxicity rating, crop damage CORN: 0
[21]; 250 g ai/ha
  Pre-emerge phytotoxicity rating, crop damage CORN: 0
[22]; 63 g ai/ha
  Pre-emerge phytotoxicity rating, crop damage RICE: 0
[22]; 250 g ai/ha
  Pre-emerge phytotoxicity rating, crop damage RICE: 80
[23]; 63 g ai/ha
  Pre-emerge herbicidal activity, phytotoxicity rating AMARE: 100
[23]; 250 g ai/ha
  Pre-emerge herbicidal activity, phytotoxicity rating AMARE: 100
